Results on 15 compounds are retold here after paper PMC6485937 (Archives of toxicology, 2016).

Data set [1] deals with D. japonica cholinesterase (DjChE). Put plainly: Substrate hydrolysis by DjChE in homogenates. The class given is biochemical, Dugesia japonica. Particulars: mean ± SE of 6 independent experiments.
Data set [2] shares this test system. As to the kind of experiment: Kinetics of irreversible. Particulars: for kr (bimolecular rate constant), rates of inhibition by carbamylating agents / kr (bimolecular rate constant), rates of inhibition by OP oxons: 1 mM ATCh, room temperature, mean± 95% confidence intervals; for Inhibition of ATCh or BTCh hydrolysis: 1 mM ATCh or BTCh. It counts as biochemical, Dugesia japonica.

Data set [3] concerns diethylphosphoryl DjChE (OP inhibited D. japonica cholinesterase). Put plainly: Reactivation of OP inhibited DjChE by oximes or NaF. It counts as biochemical, Dugesia japonica.
Data set [4] relates to human AChE. Particulars: human AChE in vitro; ref Radić et al. 2013; cited from earlier work.
The conditions of data set [5]: in mammals; ref Radić et al. 2012; cited from earlier work.

`CC(=O)SCC[N+](C)(C)C` [ATCh, acetylthiocholine]: the Km in data set [1] amounted to 123 ± 6 µM.
For `CCCC(=O)SCC[N+](C)(C)C` [BTCh, butyrylthiocholine], the Km in data set [1] is 59 ± 4 µM.
As to `CNC(=O)Oc1cccc2ccccc12` [Carbaryl, carbaryl], the “kr (bimolecular rate constant), rates of inhibition by carbamylating agents” value (shortened to “kr … of inhibition by carbamylating agents”) in data set [2] is recorded as 0.00064± 0.00008 × 10^5 M^−1 min^−1.
Regarding `CCOP(=O)(OCC)Oc1cc(C)nc(C(C)C)n1` [Diazinon oxon, diazinon oxon], the “kr (bimolecular rate constant), rates of inhibition by OP oxons” value (from here on “kr … of inhibition by OP oxons”) in data set [2] was 22±2 × 10^5 M^−1min^−1.
Still for that read-out and setting: with `COP(=O)(OC)OC=C(Cl)Cl` [Dichlorvos, dichlorvos] the figure was 9.1± 0.9 × 10^5 M^−1min^−1; with `CCOC(=O)CC(SP(=O)(OC)OC)C(=O)OCC` (stereo not shown) [Malaoxon, malaoxon], 0.14± 0.01 × 10^5 M^−1min^−1.
Take `[F-].[Na+]` [NaF, sodium fluoride]: in data set [3] (10 mM NaF vs 4 mM 2-PAM), the “Reactivation rate of 10 mM NaF relative to 4 mM 2-PAM” value is listed as “four times faster”. Besides, the “mean kobs of reactivation” value in data set [3] (10 mM NaF, OP inhibited DjChE) was determined as 0.023 min⁻¹.
Consider `CN(C)C(=O)Oc1cccc([N+](C)(C)C)c1` [Neostigmine, neostigmine], for which, in data set [2], the “kr … of inhibition by carbamylating agents” value is listed as 1.3±0.2 × 10^5 M^−1 min^−1.
For the compound `CCOP(=O)(OCC)Oc1ccc([N+](=O)[O-])cc1` [Paraoxon, paraoxon], the “kr … of inhibition by OP oxons” value in data set [2] is reported as 1.7± 0.1 × 10^5 M^−1min^−1.
For the compound `CNC(=O)Oc1ccc2c(c1)[C@]1(C)CCN(C)[C@@H]1N2C` [Physostigmine, physostigmine], the “kr … of inhibition by carbamylating agents” value in data set [2] is listed as 0.32± 0.02 × 10^5 M^−1 min^−1.
Same read-out and setting: with `CN(C)C(=O)Oc1ccc[n+](C)c1` [Pyridostigmine, pyridostigmine] the figure was 0.10± 0.01 × 10^5 M^−1 min^−1.
On to `O=C(C=NO)NCCN1CCCCCC1` [RS194B], for which the “Rate of reactivation relative to equimolar 2-PAM” value in data set [4] was 2.5 times faster. Further, the “Crossing of the blood-brain barrier” value in data set [5] is “crosses the blood-brain barrier”. In addition, the “Reactivation rate compared with 2-PAM” value in data set [3] (4 mM oxime, diazinon oxon inhibited DjChE) is on record as “significantly faster than 2-PAM”.
For `CC(C)NP(=O)(NC(C)C)OP(=O)(NC(C)C)NC(C)C` [iso-OMPA, Tetraisopropyl pyrophosphoramide], the “Inhibition of ATCh or BTCh hydrolysis” value in data set [2] (5 mM iso-OMPA) is “only slow inhibition”; in data set [2] (incubation with up to 1 mM iso-OMPA), “unable to significantly inhibit”.
Turning to chlorpyrifos oxon, in data set [2], the “kr … of inhibition by OP oxons” value is 3.0± 0.3 × 10^5 M^−1min^−1.
Consider pyridine-2-aldoxime [2-PAM], for which the “mean kobs of reactivation” value in data set [3] (4 mM 2-PAM, diazinon oxon inhibited DjChE) is 0.0058 min⁻¹.
